Laboratory results published in the METLIN SMRT retention time set (Domingo-Almenara et al. 2019).
Blank lines part the entries; values can stand above or below the compound they belong to.

Experiment: gradient 5% acetonitrile 3 min, to 50% in 2 min, to 85% in 15 min, held 3 min, 100 µL/min
Conditions: column: Zorbax Extend-C18 2.1 x 50 mm; eluents: water / acetonitrile, 0.1% formic acid
How it was run: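 The system's dead and dwell volumes were 40 μL and 900 μL, with a Zorbax Extend-C18 column (2.1 × 50 mm, 1.8 μm) run at 100 μL/min in water and acetonitrile containing 0.1% formic acid each. Pure standards were analyzed in mixtures of ~100 molecules by HPLC–quadrupole time-of-flight mass spectrometry in positive and negative ionization mode. Retention time was assigned from computationally picked, manually inspected adduct peaks.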

SMILES: COc1ccc(CN(C(=O)COc2ccc(Cl)cc2C)C2CCS(=O)(=O)C2)cc1OC (stereo not given)
RP-LC retention time: 938 s

SMILES: COc1cc(Nc2nc(C(=O)N3CCOCC3)cc3occc23)cc(OC)c1OC
RP-LC retention time: 710 s

SMILES: CC1CCCN(S(=O)(=O)c2ccc(-n3cnc(C(=O)NC4CC4)c3)nc2)C1 (stereo not given)
RP-LC retention time: 798 s

SMILES: Clc1ccc(Cl)c(-c2ccc(CNCCN3CCNCC3)o2)c1
RP-LC retention time: 603 s

SMILES: COc1ccc(OC)c(NC(=O)C2CCCN2S(=O)(=O)c2cc3c(cc2C)NC(=O)C(C)O3)c1 (stereo not given)
RP-LC retention time: 830 s

SMILES: O=C(NCCc1csc(-c2cccs2)n1)C1CCN(S(=O)(=O)c2ccc(F)cc2)CC1
RP-LC retention time: 882 s

SMILES: Cc1oc(C(C)C)nc1C(=O)Nc1ccc(F)c(Cl)c1
RP-LC retention time: 1170 s

SMILES: CCN(CC)C(=O)COc1cc(C(F)(F)F)c2c(C)nn(-c3ccc(C)cc3)c2n1
RP-LC retention time: 1250 s

SMILES: O=C(CCC1CCCN(S(=O)(=O)c2ccccc2)C1)NCc1ccc(Cl)cc1 (stereo not given)
RP-LC retention time: 979 s

SMILES: COC(=O)c1scc(-c2ccccc2)c1S(=O)(=O)N1CCN(c2ccccn2)CC1
RP-LC retention time: 729 s

SMILES: CC1CCN(C(=O)c2ccc3ncnc(N4CCCC4)c3c2)CC1
RP-LC retention time: 619 s

SMILES: C[C@]12CC[C@H](O)CC1=CCC1C2CC[C@]2(C)C(n3cnc4ccccc43)=CCC12 (stereo not given in full)
RP-LC retention time: 948 s

SMILES: CCn1c(CCNC(=O)c2ccc(Cl)cc2)nc2cccnc21
RP-LC retention time: 653 s

SMILES: CC(=O)Nc1cccc2c(C(=O)NC(C)c3ccc(C)cc3C)ccnc12 (stereo not given)
RP-LC retention time: 896 s

SMILES: Clc1ccc(Cl)c(-c2ccc(-c3nn4c(-c5ccco5)nnc4s3)o2)c1
RP-LC retention time: 1260 s

SMILES: C#CCOCC1CCCN(S(=O)(=O)c2cc(F)ccc2OC)C1 (stereo not given)
RP-LC retention time: 871 s

SMILES: O=C(NC1CCCCC1)C1CCc2sc(C(=O)N3CCCCC3)cc2C1 (stereo not given)
RP-LC retention time: 891 s

SMILES: Cc1nn(-c2ccc(F)cc2)c2nc(N3CCCC(C(=O)NC4CCCCC4)C3)sc12 (stereo not given)
RP-LC retention time: 1190 s

SMILES: O=C(NCCN1CCN(c2ccc(Cl)cc2)CC1)C(=O)Nc1cc(F)ccc1F
RP-LC retention time: 613 s

Other lines, results leading:

RP-LC retention time: 640 s
SMILES: O=C(c1cccnc1)N1CCN(C(=O)c2nnn3c2COC(c2ccccc2)C3)CC1 (stereo not given)

RP-LC retention time: 795 s
SMILES: CC(=O)c1ccc(NC(=O)c2cnc(-c3ccccc3)nc2-c2ccncc2)cc1

RP-LC retention time: 1050 s
SMILES: O=c1c2ccccc2n(Cc2nc(-c3ccc(F)cc3)no2)c(=O)n1Cc1ccco1

RP-LC retention time: 633 s
SMILES: CCCN(Cc1ccc(OC)cc1)Cc1cc(=O)n2cc(C)ccc2n1

RP-LC retention time: 927 s
SMILES: O=S(=O)(Cc1ccc(Cl)cc1)N1CCC(n2c(-c3ccco3)nc3cccnc32)C1 (stereo not given)

RP-LC retention time: 1090 s
SMILES: COc1ccc(C)cc1NC(=O)Cn1cnc2c(sc3nc(-c4ccccc4)ccc32)c1=O

RP-LC retention time: 1310 s
SMILES: Cc1nc2cc(-c3noc(C(C)Oc4ccccc4)n3)ccc2n(C2CCCC2)c1=O (stereo not given)

RP-LC retention time: 1180 s
SMILES: COc1ccccc1C(=O)Nc1cnc(-c2cccc(Cl)c2)nc1

RP-LC retention time: 1020 s
SMILES: CCc1nc(-c2csc(S(=O)(=O)N3CCCC(C(=O)Nc4ccccc4Cl)C3)c2)no1 (stereo not given)

RP-LC retention time: 583 s
SMILES: CCOC(=O)c1c(C)oc2nc(C)nc(N3CCN(Cc4ccccc4)CC3)c12

RP-LC retention time: 658 s
SMILES: CCCC(NC(=O)c1ccc(OC)cc1)C(=O)Nc1nc2ccccc2[nH]1 (stereo not given)

RP-LC retention time: 896 s
SMILES: CCc1ccc2nc(Nc3ncc4c(n3)CC(c3cccc(Cl)c3)CC4=O)nc(C)c2c1 (stereo not given)

RP-LC retention time: 809 s
SMILES: Cc1ccc(NC(=O)N2CCC(N3CCN(Cc4ccccc4)C(=O)C3=O)CC2)cc1Cl

RP-LC retention time: 802 s
SMILES: COc1ccccc1-c1noc(C2CCCN2C(=O)c2ccsc2)n1 (stereo not given)

RP-LC retention time: 650 s
SMILES: COc1ccc(-c2c(C(=O)Nc3ccc(OC)cc3OC)nc3ccccn23)cc1

RP-LC retention time: 783 s
SMILES: Cc1nnc(N2CCCC(C(=O)NCCC(C)C)C2)c2nn(-c3ccc(Cl)cc3)c(C)c12 (stereo not given)
